Numbers after ± are expanded uncertainties.
Assays:
[1] = 100 kPa, Liquid; for mass density: Vibrating tube method; for speed of sound: Frequency=5 MHz, Pulse-echo method
[2] = xn = mol fraction of the nth substance listed; conditions: 100 kPa, Liquid, x2 = 0; for mass density: Vibrating tube method; for speed of sound: Frequency=5 MHz, Pulse-echo method

OCCCCCO [1,5-pentanediol]
[1]
Conditions | mass density [kg/m3] | speed of sound [m/s]
278.15 K | 998 ± 2.1 | –
283.15 K | 995 ± 2.1 | –
288.15 K | 992.2 ± 2.1 | 1616.4 ± 2.3
293.15 K | 989.3 ± 2.1 | 1605 ± 2.3
298.15 K | 986.5 ± 2.1 | 1593.8 ± 2.3
303.15 K | 983.6 ± 2.1 | 1582.5 ± 2.3
308.15 K | 980.7 ± 2.1 | 1571.3 ± 2.3
313.15 K | 977.8 ± 2.1 | 1560.2 ± 2.3
318.15 K | 974.9 ± 2.1 | 1549 ± 2.3
323.15 K | 971.9 ± 2.1 | –
328.15 K | 969 ± 2.1 | –
333.15 K | 965.9 ± 2.1 | –

O [water] + OCCCCCO
[2]
Conditions | mass density [kg/m3] | speed of sound [m/s]
278.15 K | 999.97 ± 0.16 | –
283.15 K | 999.7 ± 0.16 | –
308.15 K | – | 1519.2 ± 1.1
313.15 K | – | 1528.8 ± 1.2
318.15 K | – | 1536.7 ± 1.2
323.15 K | 988.03 ± 0.16 | –
328.15 K | 985.68 ± 0.16 | –
333.15 K | 983.19 ± 0.16 | –
